Assay results taken from patent publication US4499099A, “Nortropane and granatane type compounds useful in treating psychosis” (Beecham Group p.l.c., priority 1981, dated 1985).
Where a name gives a salt, the structure may show the parent alone.

These molecules were tested on post-synaptic Dopamine (D.A.) receptors (assay: Inhibition of Apomorphine Induced Climbing in the Mouse). Conditions: male CD1 mice, apomorphine 1 mg/kg s.c., test compound administered subcutaneously 30 minutes prior to apomorphine (b213 says pre-treated orally), climbing scored at 10 and 20 minutes, read-out: ED50 (dose that produced a 50% inhibition of apomorphine-induced climbing).
Assay type: in vivo
Procedure: The results in the following table are on illustration of the anti-psychotic activity of the present compounds as shown by Inhibition of Apomorphine Induced Climbing in the Mouse, a standard test.
The test is based on that described by Protais, P., Constantin, J. and Schwartz J. C. (1976), Psychopharmacology, 50, 1-6.
When mice are given a dose of 1 mg/kg apomorphine and then placed in an enclosed environment, such as an inverted wire cage, they are seen to climb around the walls. This behavioural phenomenon is thought to be a consequence of the stimulation of post-synaptic Dopamine (D.A.) receptors in the nucleus accumbens. Inhibition of apomorphine induced climbing is therefore indicative of post-synaptic D.A. receptor blockade in the accumbens.
Groups of 10 male CD1 mice, weighing 25-30 g were pre-treated orally with either graded doses of the test compound or vehicle, at appropriate time intervals before the subcutaneous administration of a sub-maximal dose of apomorphine (1 mg/kg). Immediately after the apomorphine injection the mice were placed in wire `climbing cages` and each animal was scored for climbing behaviour at 10 and 20 minutes post apomorphine as follows:
Four paws on cage floor=0
The test compound was administered subcutaneously 30 minutes prior to administration of apomorphine.
The total score was calculated for each group of mice and expressed as a percentage inhibition of climbing. [formula]
ED50's and fiducial limits were calculated according to the method of Litchfield and Wilcoxon, the ED50 being the dose that produced a 50% inhibition of apomorphine--induced climbing.
In the case of COc1cc(N)c(SC)cc1C(=O)N[C@@H]1C[C@H]2CC[C@@H](C1)N2Cc1ccccc1 [Example 1, 4-Amino-2-methoxy-5-methylthio-N-[3-β-(8-benzyl-8-azabicyclo(3,2,1)octyl)]benzamide], the ED50 is reported as 0.66 mg/kg.
In the case of COc1cc(N)c(SC)cc1C(=O)N[C@@H]1C[C@H]2CCC[C@@H](C1)N2Cc1ccc(F)cc1 [Example 2, 4-Amino-2-methoxy-5-methylthio-[N-(9-(4^1-fluorobenzyl)-9-azabicyclo(3.3.1)non-3β-yl)]benzamide], the ED50 is reported as 0.32 mg/kg.
COc1cc(SC)cc(C(=O)N[C@@H]2C[C@H]3CC[C@@H](C2)N3Cc2ccccc2)c1OC [Example 3, 2,3-Dimethoxy-5-methylthio-N[3β(8-benzyl-8-azabicyclo[3.2.1]octyl)]benzamide hydrochloride] gave an ED50 of 0.44 mg/kg.
Work on COc1cc(SC)cc(C(=O)N[C@@H]2C[C@H]3CCC[C@@H](C2)N3Cc2ccc(F)cc2)c1OC [Example 4, 2,3-dimethoxy-5-methylthio-[N-(9-(4^1-fluorobenzyl)-9-azabicyclo(3.3.1)non-3β-yl)]benzamide] yielded an ED50 of 0.56 mg/kg.
